# Test results as given in patent US10597388B2, “Pyridazinone herbicides” (FMC CORPORATION, priority 2014, dated 2020).
# What was measured:
# Assay type in all cases: in vivo
# corn (Zea mays) = assay: Test A greenhouse herbicide test, pre- and postemergence; conditions: Postemergence; for Corn plant response rating: 0 to 100 scale, 0 is no effect, 100 is complete control
# Description: (§1) Seeds of plant species selected from barnyardgrass (Echinochloa crus-galli), kochia (Kochia scoparia), ragweed (common ragweed, Ambrosia elatior), ryegrass, Italian (Italian ryegrass, Lolium multiflorum), crabgrass, large (large crabgrass, Digitaria sanguinalis), foxtail, giant (giant foxtail, Setaria faberii), momingglory (Ipomoea spp.), pigweed (Amaranthus retroflexus), velvetleaf (Abutilon theophrasti), wheat (Triticum aestivum), and corn (Zea mays) were planted into a blend of loam soil and sand and treated preemergence with a directed soil spray using test chemicals formulated in a non-phytotoxic solvent mixture which included a surfactant.
# (§2) At the same time, plants selected from these crop and weed species and also blackgrass (Alopecurus myosuroides), and galium (catchweed bedstraw, Galium aparine) were planted in pots containing the same blend of loam soil and sand and treated with postemergence applications of test chemicals formulated in the same manner. Plants ranged in height from 2 to 10 cm and were in the one- to two-leaf stage for the postemergence treatment. Treated plants and untreated controls were maintained in a greenhouse for approximately 10 d, after which time all treated plants were compared to untreated controls and visually evaluated for injury. Plant response ratings, summarized in Table A, are based on a 0 to 100 scale where 0 is no effect and 100 is complete control. A dash (-) response means no test result.
# [1] = test system: wheat (Triticum aestivum); assay: as above; conditions: Postemergence; for Wheat plant response rating: 0 to 100 scale, 0 is no effect, 100 is complete control
# Description: as §1, §2
# [2] = test system: barnyardgrass (Echinochloa crus-galli); assay: as above
# Description: as §1, §2
# [3] = test system: pigweed (Amaranthus retroflexus); assay: as above
# Description: as §1, §2
# kochia (Kochia scoparia) = assay: as above
# Description: as §1, §2
# [4] = test system: ragweed (common ragweed, Ambrosia elatior); assay: as above
# Description: as §1, §2
# [5] = test system: foxtail, giant (giant foxtail, Setaria faberii); assay: as above
# Description: as §1, §2
# [6] = test system: ryegrass, Italian (Italian ryegrass, Lolium multiflorum); assay: as above
# Description: as §1, §2
# [7] = test system: blackgrass (Alopecurus myosuroides); assay: Test A greenhouse herbicide test, postemergence; conditions: for Blackgrass plant response rating: 0 to 100 scale, 0 is no effect, 100 is complete control
# Summary of the method: (§3)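 Seedlings in a loam soil and sand mix received formulated compound postemergence at the one- to two-leaf stage. Greenhouse holding lasts approximately 10 d, then injury is scored visually relative to untreated plants, 0 meaning no effect and 100 complete control.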
# [8] = test system: galium (catchweed bedstraw, Galium aparine); assay: Test A greenhouse herbicide test, postemergence; conditions: for Galium plant response rating: 0 to 100 scale, 0 is no effect, 100 is complete control
# Summary of the method: as §3
# [9] = 125 g ai/ha, 0 to 100 scale where 0 is no effect and 100 is complete control
# [10] = Postemergence, 125 g ai/ha, 0 to 100 scale where 0 is no effect and 100 is complete control
# [11] = Postemergence, 500 g ai/ha, 0 to 100 scale, 0 is no effect, 100 is complete control
# [12] = Preemergence, 125 g ai/ha, 0 to 100 scale where 0 is no effect and 100 is complete control
# [13] = Preemergence, 500 g ai/ha, 0 to 100 scale, 0 no effect, 100 complete control
# [14] = Preemergence, 500 g ai/ha, 0 to 100 scale where 0 is no effect and 100 is complete control
# [15] = 500 g ai/ha, visual rating after approx. 10 d, 0 to 100 scale (0 no effect, 100 complete control)
# [16] = Postemergence, 500 g ai/ha, visual rating after approx. 10 d, 0 to 100 scale (0 no effect, 100 complete control)
SMILES,"Plant response rating, Corn (corn (Zea mays); [9])",Corn plant response rating (corn (Zea mays); 500 g ai/ha),"Plant response rating, Wheat [1, 9]",Wheat plant response rating ([1]; 500 g ai/ha),"Plant response rating, Barnyardgrass [2, 10]","Barnyardgrass plant response rating [2, 11]","Barnyardgrass plant response rating [2, 12]","Plant response rating, Pigweed [3, 10]","Pigweed plant response rating [3, 11]","Pigweed plant response rating [3, 12]","Plant response rating, Pigweed [3, 14]","Plant response rating, Kochia (kochia (Kochia scoparia); [10])",Kochia plant response rating (kochia (Kochia scoparia); [11]),Kochia plant response rating (kochia (Kochia scoparia); [12]),"Plant response rating, Ragweed [4, 10]","Plant response rating, Foxtail, Giant [5, 10]","Foxtail, Giant plant response rating [5, 12]","Plant response rating, Ryegrass, Italian [6, 10]","Plant response rating, Blackgrass [7, 9]","Plant response rating, Galium [8, 9]",further results
CCc1nn(C)c(=O)c(-c2c(C)oc3ccc(Cl)cc23)c1O [Compound 77],0,0,0,0,0,0,0,0,0,0,0,0,10,0,0,0,0,20,0,20,"Plant response rating, Barnyardgrass [2, 13]: 10; Plant response rating, Kochia (kochia (Kochia scoparia); [14]): 0; Ragweed plant response rating [4, 11]: 0; Ragweed plant response rating [4, 12]: 0; Plant response rating, Ragweed [4, 14]: 0; Foxtail, Giant plant response rating [5, 11]: 0; Plant response rating, Foxtail, Giant [5, 14]: 10; Ryegrass, Italian plant response rating [6, 11]: 60; Ryegrass, Italian plant response rating [6, 12]: 10; Plant response rating, Ryegrass, Italian [6, 14]: 40; Blackgrass plant response rating ([7]; 500 g ai/ha): 0; Galium plant response rating ([8]; 500 g ai/ha): 60"
Cc1nn(C)c(=O)c(-c2c(Cl)n(C)c3ccccc23)c1O [Compound 95],0,0,0,0,0,10,0,0,0,0,20,0,10,0,0,0,0,10,0,20,"Plant response rating, Barnyardgrass [2, 14]: 0; Plant response rating, Kochia (kochia (Kochia scoparia); [14]): 10; Ragweed plant response rating [4, 11]: 10; Ragweed plant response rating [4, 12]: 0; Plant response rating, Ragweed [4, 14]: 20; Foxtail, Giant plant response rating [5, 11]: 0; Plant response rating, Foxtail, Giant [5, 14]: 0; Ryegrass, Italian plant response rating [6, 11]: 50; Ryegrass, Italian plant response rating [6, 12]: 10; Plant response rating, Ryegrass, Italian [6, 14]: 60; Blackgrass plant response rating ([7]; 500 g ai/ha): 10; Galium plant response rating ([8]; 500 g ai/ha): 60"
Cc1sc2ccc(C(F)(F)F)cc2c1-c1c(O)c(Cl)nn(C)c1=O [Compound 140],20,,20,,50,,50,70,,50,100,30,,0,90,40,50,70,30,70,"Plant response rating, Corn (corn (Zea mays); [15]): 30; Plant response rating, Wheat [1, 15]: 70; Plant response rating, Barnyardgrass [2, 16]: 90; Plant response rating, Barnyardgrass [2, 14]: 70; Plant response rating, Pigweed [3, 16]: 90; Plant response rating, Kochia (kochia (Kochia scoparia); [16]): 70; Plant response rating, Kochia (kochia (Kochia scoparia); [14]): 30; Plant response rating, Ragweed [4, 16]: 100; Plant response rating, Ragweed [4, 14]: 90; Plant response rating, Foxtail, Giant [5, 16]: 90; Plant response rating, Foxtail, Giant [5, 14]: 80; Plant response rating, Ryegrass, Italian [6, 16]: 100; Plant response rating, Ryegrass, Italian [6, 14]: 90; Plant response rating, Blackgrass [7, 15]: 50; Plant response rating, Galium [8, 15]: 90"
CCc1nn(CC)c(=O)c(-c2c(C)oc3ccc(C)cc23)c1O [Compound 64],0,0,0,0,0,0,0,0,0,0,,0,0,0,0,0,0,0,0,0,"Plant response rating, Barnyardgrass [2, 13]: 0; Plant response rating, Pigweed [3, 13]: 0; Plant response rating, Kochia (kochia (Kochia scoparia); [13]): 0; Ragweed plant response rating [4, 11]: 0; Ragweed plant response rating [4, 12]: 0; Plant response rating, Ragweed [4, 13]: 0; Foxtail, Giant plant response rating [5, 11]: 0; Plant response rating, Foxtail, Giant [5, 13]: 0; Ryegrass, Italian plant response rating [6, 11]: 0; Ryegrass, Italian plant response rating [6, 12]: 0; Plant response rating, Ryegrass, Italian [6, 13]: 0; Blackgrass plant response rating ([7]; 500 g ai/ha): 0; Galium plant response rating ([8]; 500 g ai/ha): 0"
